Assay results published in patent publication US20170157135A1 (Novogen Limited, priority 2013, published 2017).

Key:
Format in all cases: cell-based
[1] = tested on: SK-N-SH neuroblastoma cells; assay: Anti-proliferative assay (cell-titre luminescent), SK-N-SH; conditions: Homo sapiens, 72 hours, luminescence
Description: (§1) The ability of compounds 2002, 2009 and 2013-2064 to inhibit the proliferation of cancer cells representative of neuroblastoma, melanoma, prostate cancer, colorectal cancer, non-small cell lung carcinoma, and triple negative breast cancer was assessed. These studies were conducted by contract research (GVK-BIO). Briefly, a pre-determined number of cells as calculated from cell growth assays for each of the cell lines employed were seeded into their respective culture medium (using ATCC culture parameters—http://www.atcc.org) and cultured for 24 h at 37° C. and 5% CO2 in 96-well culture plates. Once attached, each cell line was then exposed to various concentrations of each respective analogue (30, 10, 3, 1, 0.3 and 0.1 μM), cultured for a further 72 hours and exposed to cell-titre luminescent reagent (100 μL/well) for a further 30 minutes). Luminescence was captured using an EnVision multilabel reader and the data for each analogue concentration compared against no treatment control. Cell viability was normalized to control (vehicle alone) and dose-response curves, and half maximal effective concentration (EC50) values were determined using Graph Pad Prism 6 (nonlinear regression sigmoidal dose-response variable slope).

[2] = tested on: DU145 prostate cancer cells; assay: Anti-proliferative assay (cell-titre luminescent), DU145; conditions: Homo sapiens, DU-145; DU145, 72 hours, luminescence
Description: as §1

[3] = tested on: MDA-MB-231 breast cancer cells; assay: Anti-proliferative assay (cell-titre luminescent), MDA-MB-231; conditions: Homo sapiens; MDA-MB-231, 72 hours, luminescence
Description: as §1

[4] = tested on: CaCo2 colorectal cancer cells; assay: Anti-proliferative assay (cell-titre luminescent), CaCo2; conditions: Homo sapiens, Caco-2; CaCo2, 72 hours, luminescence
Description: as §1

[5] = tested on: PC3 prostate cancer cells; assay: Anti-proliferative assay (cell-titre luminescent), PC3; conditions: PC3, 72 hours, luminescence
Description: as §1

SK-Mel-28 melanoma cells = assay: Anti-proliferative assay (cell-titre luminescent), SK-Mel-28; conditions: Homo sapiens; SK-Mel-28, 72 hours, luminescence
Description: as §1

A549 lung (NSLC) cells = assay: Anti-proliferative assay (cell-titre luminescent), A549; conditions: Homo sapiens; A549, 72 hours, luminescence
Description: as §1

COc1cccc(CCN2CCN(C(=O)c3c(C)n(CCCN(C)C)c4ccc(OC)cc34)CC2)c1 [Compound 2048, (1-(3-(dimethylamino)propyl)-5-methoxy-2-methyl-1H-indol-3-yl)(4-(3-methoxyphenethyl)piperazin-1-yl)methanone]
IC50 [1]: > 30 µM
IC50 [2]: > 30 µM
IC50 [3]: > 30 µM
IC50 [4]: > 30 µM
IC50 [5]: > 30 µM
IC50 (SK-Mel-28 melanoma cells): > 30 µM
IC50 (A549 lung (NSLC) cells): > 30 µM

CCN(CC)CCCn1c(C)c(C(=O)N2CCN(CCc3cccc(F)c3)CC2)c2cc(OC)ccc21 [Compound 2053, (1-(3-(diethylamino)propyl)-5-methoxy-2-methyl-1H-indol-3-yl)(4-(3-fluorophenethyl)piperazin-1-yl)methanone]
IC50 [1]: 4.8 µM
IC50 [2]: 13.6 µM
IC50 [3]: 12.6 µM
IC50 [4]: 12.2 µM
IC50 [5]: 11 µM
IC50 (SK-Mel-28 melanoma cells): 4.7 µM
IC50 (A549 lung (NSLC) cells): 13.5 µM

CCOc1ccc2c(c1)c(C(=O)N1CCN(CCc3ccc(F)cc3)CC1)c(C)n2CCCN1CCN(C)CC1 [Compound 2064, (5-ethoxy-2-methyl-1-(3-(4-methylpiperazin-1-yl)propyl)-1H-indol-3-yl)(4-(4-fluorophenethyl)piperazin-1-yl)methanone]
IC50 [1]: 4.3 µM
IC50 [2]: 14 µM
IC50 [3]: 5.8 µM
IC50 [4]: 29.1 µM
IC50 [5]: 6.9 µM
IC50 (SK-Mel-28 melanoma cells): 3.5 µM
IC50 (A549 lung (NSLC) cells): 7.8 µM

CCN(CC)CCCn1c(C)c(/C=C/C(=O)N2CCN(CCc3ccccc3)CC2)c2cc(OC)ccc21 [Compound 2028, (E)-3-(1-(3-(diethylamino)propyl)-5-methoxy-2-methyl-1H-indol-3-yl)-1-(4-phenethylpiperazin-1-yl)prop-2-en-1-one]
IC50 [1]: 2.7 µM
IC50 [2]: 5.3 µM
IC50 [3]: 5.2 µM
IC50 [4]: 4.1 µM
IC50 [5]: 5.3 µM
IC50 (SK-Mel-28 melanoma cells): 2 µM
IC50 (A549 lung (NSLC) cells): 4.2 µM

COc1ccc2c(c1)c(/C=C/C(=O)N1CCN(CCc3ccc(F)cc3)CC1)c(C)n2CCCN1CCN(C)CC1 [Compound 2029, (E)-1-(4-(4-fluorophenethyl)piperazin-1-yl)-3-(5-methoxy-2-methyl-1-(3-(4-methylpiperazin-1-yl)propyl)-1H-indol-3-yl)prop-2-en-1-one]
IC50 [1]: 2.8 µM
IC50 [2]: 4.2 µM
IC50 [3]: 3.3 µM
IC50 [4]: 4.4 µM
IC50 [5]: 2.9 µM
IC50 (SK-Mel-28 melanoma cells): 5.7 µM
IC50 (A549 lung (NSLC) cells): 4.5 µM

COc1ccc2c(c1)c(C(=O)N1CCN(CCc3cccc(F)c3)CC1)c(C)n2CCCN(C)C [Compound 2047, (1-(3-(dimethylamino)propyl)-5-methoxy-2-methyl-1H-indol-3-yl)(4-(3-fluorophenethyl)piperazin-1-yl)methanone]
IC50 [1]: 10.9 µM
IC50 [2]: 13.6 µM
IC50 [3]: 12 µM
IC50 [4]: 8.8 µM
IC50 [5]: 14.9 µM
IC50 (SK-Mel-28 melanoma cells): 13.5 µM
IC50 (A549 lung (NSLC) cells): 14.3 µM

CCOc1ccc2c(c1)c(/C=C/C(=O)N1CCN(CCc3ccc(F)cc3)CC1)c(C)n2CCCN(CC)CC [Compound 2036, (E)-3-(1-(3-(diethylamino)propyl)-5-ethoxy-2-methyl-1H-indol-3-yl)-1-(4-(4-fluorophenethyl)piperazin-1-yl)prop-2-en-1-one]
IC50 [1]: 1.5 µM
IC50 [2]: 4.7 µM
IC50 [3]: 4.4 µM
IC50 [4]: 5.1 µM
IC50 [5]: 4.9 µM
IC50 (SK-Mel-28 melanoma cells): 3.2 µM
IC50 (A549 lung (NSLC) cells): 4.3 µM

CCN(CC)CCCn1c(C)c(/C=C/C(=O)N2CCN(CCc3ccc(F)cc3)CC2)c2cc(OC)ccc21 [Compound 2023, (E)-3-(1-(3-(diethylamino)propyl)-5-methoxy-2-methyl-1H-indol-3-yl)-1-(4-(4-fluorophenethyl)piperazin-1-yl)prop-2-en-1-one]
IC50 [1]: 3.6 µM
IC50 [2]: 4.4 µM
IC50 [3]: 4.6 µM
IC50 [4]: 10.3 µM
IC50 [5]: 5.6 µM
IC50 (SK-Mel-28 melanoma cells): 2.7 µM
IC50 (A549 lung (NSLC) cells): 5.2 µM

Cc1c(C(=O)N2CCN(CCc3ccc4c(c3)OCO4)CC2)c2ccccc2n1CCCN(C)C [Compound 2040, (4-(2-(benzo[d][1,3]dioxol-5-yl)ethyl)piperazin-1-yl)(1-(3-(dimethylamino)propyl)-2-methyl-1H-indol-3-yl)methanone]
IC50 [1]: 26.4 µM
IC50 [2]: > 30 µM
IC50 [3]: > 30 µM
IC50 [4]: > 30 µM
IC50 [5]: > 30 µM
IC50 (SK-Mel-28 melanoma cells): 16.4 µM
IC50 (A549 lung (NSLC) cells): > 30 µM

COc1cccc(CCN2CCN(C(=O)c3c(C)n(CCCN(C)C)c4ccccc34)CC2)c1 [Compound 2042, (1-(3-(dimethylamino)propyl)-2-methyl-1H-indol-3-yl)(4-(3-methoxyphenethyl)piperazin-1-yl)methanone]
IC50 [1]: > 30 µM
IC50 [2]: > 30 µM
IC50 [3]: > 30 µM
IC50 [4]: > 30 µM
IC50 [5]: > 30 µM
IC50 (SK-Mel-28 melanoma cells): > 30 µM
IC50 (A549 lung (NSLC) cells): > 30 µM

Cc1c(C(=O)N2CCN(CCc3cccc(F)c3)CC2)c2ccccc2n1CCCN(C)C [Compound 2041]
IC50 [1]: 13.2 µM
IC50 [2]: > 30 µM
IC50 [3]: > 30 µM
IC50 [4]: > 30 µM
IC50 [5]: > 30 µM
IC50 (SK-Mel-28 melanoma cells): 17.1 µM
IC50 (A549 lung (NSLC) cells): > 30 µM

COc1cccc(CCN2CCN(C(=O)/C=C/c3c(C)n(CCCN(C)C)c4ccccc34)CC2)c1 [Compound 2016, (E)-3-(1-(3-(dimethylamino)propyl)-2-methyl-1H-indol-3-yl)-1-(4-(3-methoxyphenethyl)piperazin-1-yl)prop-2-en-1-one]
IC50 [1]: 5 µM
IC50 [2]: 5.4 µM
IC50 [3]: 10.8 µM
IC50 [4]: 8.9 µM
IC50 [5]: 5.8 µM
IC50 (SK-Mel-28 melanoma cells): 4.1 µM
IC50 (A549 lung (NSLC) cells): 4.8 µM

COc1ccc(CCN2CCN(C(=O)c3c(C)n(CCCN4CCN(C)CC4)c4ccc(OC)cc34)CC2)cc1 [Compound 2057, (5-methoxy-2-methyl-1-(3-(4-methylpiperazin-1-yl)propyl)-1H-indol-3-yl)(4-(4-methoxyphenethyl)piperazin-1-yl)methanone]
IC50 [1]: 7.2 µM
IC50 [2]: 30 µM
IC50 [3]: 7.5 µM
IC50 [4]: 13.3 µM
IC50 [5]: 9 µM
IC50 (SK-Mel-28 melanoma cells): 4.4 µM
IC50 (A549 lung (NSLC) cells): 21.1 µM

COc1ccc(CCN2CCN(C(=O)c3c(C)n(CCCN(C)C)c4ccccc34)CC2)cc1 [Compound 2039, (1-(3-(dimethylamino)propyl)-2-methyl-1H-indol-3-yl)(4-(4-methoxyphenethyl)piperazin-1-yl)methanone]
IC50 [1]: 12.6 µM
IC50 [2]: 72.6 µM
IC50 [3]: 16.6 µM
IC50 [4]: 4.8 µM
IC50 [5]: 7.6 µM
IC50 (SK-Mel-28 melanoma cells): 11 µM
IC50 (A549 lung (NSLC) cells): 44 µM

CCN(CC)CCCn1c(C)c(C(=O)N2CCN(CCc3cccc(OC)c3)CC2)c2cc(OC)ccc21 [Compound 2054, (1-(3-(diethylamino)propyl)-5-methoxy-2-methyl-1H-indol-3-yl)(4-(3-methoxyphenethyl)piperazin-1-yl)methanone]
IC50 [1]: 10.4 µM
IC50 [2]: > 30 µM
IC50 [3]: 11.8 µM
IC50 [4]: > 30 µM
IC50 [5]: 6.9 µM
IC50 (SK-Mel-28 melanoma cells): 5.4 µM
IC50 (A549 lung (NSLC) cells): 17.8 µM

CCN(CC)CCCn1c(C)c(C(=O)N2CCN(CCc3ccc(OC)cc3)CC2)c2cc(OC)ccc21 [Compound 2051, (1-(3-(diethylamino)propyl)-5-methoxy-2-methyl-1H-indol-3-yl)(4-(4-methoxyphenethyl)piperazin-1-yl)methanone]
IC50 [1]: 10.9 µM
IC50 [2]: > 30 µM
IC50 [3]: 10.3 µM
IC50 [4]: > 30 µM
IC50 [5]: > 30 µM
IC50 (SK-Mel-28 melanoma cells): 6 µM
IC50 (A549 lung (NSLC) cells): > 30 µM

COc1ccc2c(c1)c(C(=O)N1CCN(CCc3cccc(F)c3)CC1)c(C)n2CCCN1CCN(C)CC1 [Compound 2059, (4-(3-fluorophenethyl)piperazin-1-yl)(5-methoxy-2-methyl-1-(3-(4-methylpiperazin-1-yl)propyl)-1H-indol-3-yl)methanone]
IC50 [1]: 4.2 µM
IC50 [2]: 10.1 µM
IC50 [3]: 7 µM
IC50 [4]: 19.6 µM
IC50 [5]: 9.2 µM
IC50 (SK-Mel-28 melanoma cells): 3.8 µM
IC50 (A549 lung (NSLC) cells): 10.2 µM

COc1ccc(CCN2CCN(C(=O)/C=C/c3c(C)n(CCCN(C)C)c4ccc(OC)cc34)CC2)cc1 [Compound 2019, (E)-3-(1-(3-(dimethylamino)propyl)-5-methoxy-2-methyl-1H-indol-3-yl)-1-(4-(4-methoxyphenethyl)piperazin-1-yl)prop-2-en-1-one]
IC50 [1]: 5.5 µM
IC50 [2]: 14.8 µM
IC50 [3]: 5.1 µM
IC50 [4]: 25.1 µM
IC50 [5]: 9.3 µM
IC50 (SK-Mel-28 melanoma cells): 6.3 µM
IC50 (A549 lung (NSLC) cells): 10.6 µM

COc1ccc2c(c1)c(C(=O)N1CCN(CCc3ccccc3)CC1)c(C)n2CCCN1CCN(C)CC1 [Compound 2061, (5-methoxy-2-methyl-1-(3-(4-methylpiperazin-1-yl)propyl)-1H-indol-3-yl)(4-phenethylpiperazin-1-yl)methanone]
IC50 [1]: > 30 µM
IC50 [2]: > 30 µM
IC50 [3]: > 30 µM
IC50 [4]: > 30 µM
IC50 [5]: > 30 µM
IC50 (SK-Mel-28 melanoma cells): 8.7 µM
IC50 (A549 lung (NSLC) cells): > 30 µM
